From patent US10730868B2, “Bicyclic heteroaryl substituted compounds” (BRISTOL-MYERS SQUIBB COMPANY, priority 2016, dated 2020)
Where two headings read alike, the source gives them in different places.

Biological target: PAR4 (Homo sapiens (Human), UniProt Q96RI0)
Test: PAR4 FLIPR assay (antagonism of agonist-peptide-induced calcium mobilization)
Type: cell-based
Details: PAR4-expressing HEK293 cells, read-out: PAR4 FLTPR assay (IC50)
Source text: The Fluorometric Imaging Plate Reader (FLIPR) assay is an exemplary in vitro assay for measuring the activity of the PAR4 antagonists of the present invention. In this assay, intracellular calcium mobilization is induced in PAR4 expressing cells by a PAR4 agonist and calcium mobilization is monitored.
HEK293 cells stably expressing PAR4 were generated by a standard method of transfection of human PAR4 (F2R23) cDNA expression vector and selected based on PAR4 protein expression or mRNA expression. […] These cells also express endogenous PAR1 and can elicit calcium signal upon stimulation with PAR1 agonist peptide. Therefore, the same cells were also used to determine selectivity against PAR1 and agonist activity for both receptors. Cells from HEK293 PAR4 Clone 1.2A (BMS Arctic ID 383940) were propagated and used for calcium mobilization studies.
FLIPR-based calcium mobilization assay in HEK293 cells was used to measure PAR4 antagonism agonism, and selectivity against PAR1. The activity of the PAR4 antagonists of the present invention were tested in PAR4 expressing cells by monitoring H-Ala-Phe(4-F)-[…]NH2-induced intracellular calcium mobilization. Counter screens for agonist activity and PAR1 antagonist activity were also performed. Briefly, PAR/PAR4-expressing HEK293 cells were grown in DMEM (Life Technology, Grand Island, N.Y.) containing 10% heat-inactivated FBS, 1% Penicillin-Streptomycin, 10 μg/mL blasticidin, and 100 μg/mL Zeocin at 37° C. with 5% CO2. Cells were plated overnight prior to the experiment in a black 384-well Purecoat Amine clear bottom plate (Becton Dickinson Biosciences, San Jose, Calif.) at 10,000 cells/well in 30 μL growth medium and incubated in a humidified chamber at 37° C. with 5% CO2 overnight. Prior to compound addition, the cell medium was replaced with 40 μL of 1× calcium and magnesium-containing Hank's Balanced Saline Solution (HBSS) (with 20 mM HEPES) and 1:1000 diluted fluorescent calcium indicator (Codex Biosolutions, Gaithersburg, Md.). After a 30 minute incubation period at 37° C. and a further 30 minute incubation and equilibration period at room temperature, 20 μL test compound (diluted in 1×HBSS buffer) was added at various concentrations at 0.17% dimethyl sulfoxide (DMSO) final concentration. Changes in fluorescence intensity were measured using a Functional Drug Screening System (FDSS, Hamamatsu, Japan) to determine agonist activities. The cells were then incubated for 30 minutes at room temperature followed by addition of 20 μL of agonist peptide for antagonist activity measurement. […] Compound potency was derived from 11-point concentration-response curves.

[1] = H-Ala-Phe(4-F)-Pro-Gly-Trp-Leu-Val-Lys-Asn-Gly-NH2-induced intracellular calcium mobilization
[2] = H-Ala-Phe(4-F)-[…]NH2-induced intracellular calcium mobilization

PAR4, sequence (Q96RI0 18-385): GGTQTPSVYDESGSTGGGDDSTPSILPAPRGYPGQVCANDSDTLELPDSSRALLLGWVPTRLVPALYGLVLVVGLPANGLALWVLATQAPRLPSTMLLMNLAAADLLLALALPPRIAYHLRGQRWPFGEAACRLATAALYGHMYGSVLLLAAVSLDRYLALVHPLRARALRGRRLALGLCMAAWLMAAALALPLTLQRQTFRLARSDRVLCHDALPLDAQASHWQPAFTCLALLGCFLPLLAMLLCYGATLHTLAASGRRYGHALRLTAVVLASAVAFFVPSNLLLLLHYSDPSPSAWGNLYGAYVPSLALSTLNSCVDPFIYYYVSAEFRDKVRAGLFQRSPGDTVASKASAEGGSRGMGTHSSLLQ

COc1cnc2c(-c3nc4cc(F)c(O[C@H]5CC(F)(F)CC[C@H]5OC(=O)Nc5cnc(OCCOP(=O)(O)O)nc5)cc4s3)cc(C)cc2n1 [Example 19, (1R,2S)-4,4-difluoro-2-((5-fluoro-2-(2-methoxy-7-methylquinoxalin-5-yl)benzo[d]thiazol-6-yl)oxy)cyclohexyl (2-(2-(phosphonooxy)ethoxy)pyrimidin-5-yl)carbamate]
IC50 [1]: 1 nM

COc1ccc(NC(=O)O[C@H]2CCC[C@H]2Oc2cc3sc(-c4cc(C)cc5nc(OC)cnc45)nc3cc2F)cn1 [Example 23]
IC50 [1]: 30 nM

COc1cnc2c(-c3nc4cc(F)c(O[C@@H]5CC[C@@H]5OC(=O)Nc5cnc(OCCO)nc5)cc4s3)cc(Cl)cc2c1 [Example 76]
IC50 [1]: 10 nM

COc1ccc(NC(=O)O[C@H]2COC[C@H]2Oc2cc3sc(-c4cc(C)cc5nc(OC)cnc45)nc3cc2F)cn1 (racemic) [Example 87, rac-cis-4-((5-fluoro-2-(2-methoxy-7-methylquinoxalin-5-yl)benzo[d]thiazol-6-yl)oxy) tetrahydrofuran-3-yl (6-methoxypyridin-3-yl)carbamate]
IC50 [2]: 6.2 nM

COc1cnc2c(-c3nc4cc(F)c(O[C@@H]5CCC(C)(C)[C@@H]5OC(=O)Nc5cnc(C)nc5)cc4s3)cc(C)cc2n1 (racemic) [Example 104, rac-cis-5-((5-fluoro-2-(2-methoxy-7-methylquinoxalin-5-yl)benzo[d]thiazol-6-yl)oxy)-2,2-dimethylcyclopentyl (2-methylpyrimidin-5-yl)carbamate]
IC50 [2]: 2.4 nM

COc1cnc2c(-c3nc4cc(F)c(O[C@H]5CCC[C@H]5OC(=O)Nc5ccc(C(N)=O)nc5)cc4s3)cc(C)cc2n1 [Example 49, (1R,2S)-2-((5-fluoro-2-(2-methoxy-7-methylquinoxalin-5-yl)benzo[d]thiazol-6-yl)oxy)cyclopentyl (6-carbamoylpyridin-3-yl)carbamate]
IC50 [1]: 3.6 nM

COc1cnc2c(-c3nc4cc(F)c(O[C@H]5CC(C)(C)C[C@H]5OC(=O)Nc5cnc(C)nc5)cc4s3)cc(C)cc2n1 (single isomer, unassigned; enantiomer 1) [Example 84, (cis)-2-((5-fluoro-2-(2-methoxy-7-methylquinoxalin-5-yl)benzo[d]thiazol-6-yl)oxy)-4,4-dimethylcyclopentyl (2-methylpyrimidin-5-yl)carbamate Enantiomer 1]
IC50 [2]: 5.4 nM

COc1cnc2c(-c3nc4cc(F)c(O[C@H]5CC(F)(F)CC[C@H]5OC(=O)Nc5cnc(C)nc5)cc4s3)cc(C)cc2n1 [Example 4]
IC50 [1]: 1.9 nM

COc1cnc2c(-c3nc4cc(F)c(O[C@H]5CCC[C@H]5OC(=O)Nc5cncc(C#N)c5)cc4s3)cc(C)cc2n1 [Example 34]
IC50 [1]: 1.6 nM

COc1cnc2c(-c3nc4cc(F)c(O[C@@H]5CN(C(C)=O)CC[C@@H]5OC(=O)Nc5cnc(C)nc5)cc4s3)cc(C)cc2n1 (racemic) [Example 94, rac-cis-1-acetyl-3-((5-fluoro-2-(2-methoxy-7-methylquinoxalin-5-yl)benzo[d]thiazol-6-yl)oxy)piperidin-4-yl (2-methylpyrimidin-5-yl)carbamate]
IC50 [2]: 2300 nM

COc1cnc2c(-c3nc4cc(F)c(O[C@@H]5CCC(C)(C)[C@@H]5O)cc4s3)cc(C)cc2n1 (racemic) [Example 103, rac-cis-5-((5-fluoro-2-(2-methoxy-7-methyl)quinoxalin-5-yl)benzo[d]thiazol-6-yl)oxy)-2,2-dimethylcyclopentanol]
IC50 [2]: 20 nM

COc1cnc2c(-c3nc4cc(F)c(O[C@@H]5CC(C)(C)C[C@@H]5OC(=O)Nc5cnc(C)nc5)cc4s3)cc(C)cc2n1 (racemic) [Example 83]
IC50 [2]: 6.8 nM

COc1cnc2c(-c3nc4cc(F)c(O[C@H]5CC(F)(F)CC[C@H]5OC(=O)Nc5cnc(OCCO)nc5)cc4s3)cc(C)cc2c1 [Example 15, (1R, 2S)-4,4-difluoro-2-((5-fluoro-2-(3-methoxy-6-methylquinolin-8-yl)benzo[d]thiazol-6-yl)oxy)cyclohexyl (2-(2-hydroxyethoxy)pyrimidin-5-yl)carbamate]
IC50 [1]: 0.77 nM

COc1cnc2c(-c3nc4cc(F)c(O[C@H]5CC(F)(F)CC[C@H]5OC(=O)Nc5cnc(CCO)nc5)cc4s3)cc(C)cc2n1 [Example 3]
IC50 [1]: 0.82 nM

COc1cnc2c(-c3nc4cc(F)c(O[C@H]5CCC[C@H]5OC(=O)NC(C)C)cc4s3)cc(C)cc2n1 [Example 29]
IC50 [1]: 12 nM

COc1cnc2c(-c3nc4cc(F)c(O[C@@H]5CN(S(C)(=O)=O)CC[C@@H]5OC(=O)Nc5cnc(C)nc5)cc4s3)cc(C)cc2n1 (racemic) [Example 95, rac-cis-3-((5-fluoro-2-(2-methoxy-7-methylquinoxalin-5-yl)benzo[d]thiazol-6-yl)oxy)-1-(methylsulfonyl)piperidin-4-yl (2-methylpyrimidin-5-yl)carbamate]
IC50 [2]: 72 nM

COc1cnc2c(-c3nc4cc(F)c(O[C@H]5CC(F)(F)CC[C@H]5OC(=O)Nc5ccnc(OCCC(C)(C)O)c5)cc4s3)cc(C)cc2n1 [Example 8]
IC50 [1]: 1.2 nM

COc1ccc(NC(=O)O[C@@H]2CCC[C@@H]2Oc2cc3sc(-c4cc(C)cc5nc(OC)cnc45)nc3cc2F)cn1 (racemic) [Example 33]
IC50 [2]: 3.1 nM

COc1ccc(NC(=O)O[C@H]2CCC(F)(F)CC2Oc2cc3sc(-c4cc(C)cc5nc(OC)cnc45)nc3cc2F)cn1 (mixture of isomers) [Example 14]
IC50 [2]: 2.4 nM

COc1cnc2c(-c3nc4cc(F)c(O[C@H]5CC(F)(F)CC[C@H]5OC(=O)Nc5ccc(C(=O)NCC(C)(C)O)nc5)cc4s3)cc(C)cc2n1 [Example 2]
IC50 [1]: 0.46 nM

COc1cnc2c(-c3nc4cc(F)c(O[C@H]5CC(F)(F)CC[C@H]5OC(=O)Nc5cnc(C)nc5)cc4s3)cc(Cl)cc2c1 [Example 17, (1R,2S)-2-((2-(6-chloro-3-methoxyquinolin-8-yl)-5-fluorobenzo[d]thiazol-6-yl)oxy)-4,4-difluorocyclohexyl (2-methylpyrimidin-5-yl)carbamate]
IC50 [1]: 4.1 nM

COc1cnc2c(-c3nc4cc(F)c(O[C@H]5CC[C@H]5OC(=O)Nc5cnc(OC[C@@H](C)O)nc5)cc4s3)cc(C)cc2n1 [Example 63]
IC50 [1]: 7.4 nM

COc1cnc2c(-c3nc4cc(F)c(O[C@H]5CCC[C@H]5OC(=O)Nc5ccc(CO)nc5)cc4s3)cc(C)cc2n1 [Example 31]
IC50 [1]: 1.1 nM

COc1cnc2c(-c3nc4cc(F)c(O[C@@H]5COC[C@@H]5OC(=O)Nc5cnc(C)nc5)cc4s3)cc(C)cc2n1 (racemic) [Example 86, rac-cis-4-((5-fluoro-2-(2-methoxy-7-methylquinoxalin-5-yl)benzo[d]thiazol-6-yl)oxy) tetrahydrofuran-3-yl (2-methylpyrimidin-5-yl)carbamate]
IC50 [2]: 2.7 nM

COC(=O)c1ncc(NC(=O)O[C@@H]2CCC[C@@H]2Oc2cc3sc(-c4cc(C)cc5nc(OC)cnc45)nc3cc2F)cn1 [Example 51, methyl 5-(((((1R,2S)-2-((5-fluoro-2-(2-methoxy-7-methylquinoxalin-5-yl)benzo[d]thiazol-6-yl)oxy)cyclopentyl)oxy)carbonyl)amino)pyrimidine-2-carboxylate]
IC50 [1]: 6.8 nM

CCOc1cnc2c(-c3nc4cc(F)c(O[C@H]5CC(F)(F)CC[C@H]5OC(=O)Nc5cnc(C)nc5)cc4s3)cc(C)cc2n1 [Example 18, (1R,2S)-2-((2-(2-ethoxy-7-methylquinoxalin-5-yl)-5-fluorobenzo[d]thiazol-6-yl)oxy)-4,4-difluorocyclohexyl (2-methylpyrimidin-5-yl)carbamate]
IC50 [1]: 3.9 nM

COc1cnc2c(-c3nc4cc(F)c(O[C@@H]5CC[C@@H]5OC(=O)Nc5cnc(OCCO)nc5)cc4s3)cc(C)cc2n1 (racemic) [Example 71]
IC50 [2]: 1.6 nM

COc1cnc2c(-c3nc4cc(F)c(OC5CC(F)(F)CC[C@@H]5OC(=O)Nc5cnc(OC)nc5)cc4s3)cc(C)cc2n1 (mixture of isomers) [Example 11]
IC50 [2]: 2.8 nM

COc1cnc2c(-c3nc4cc(F)c(O[C@@H]5CC[C@@H]5OC(=O)Nc5cnc(OCCO)nc5)cc4s3)cc(C#N)cc2n1 [Example 80]
IC50 [1]: 7 nM

COc1cnc2c(-c3nc4cc(F)c(O[C@@H]5CC(F)(F)C[C@@H]5OC(=O)Nc5cnc(C)nc5)cc4s3)cc(C)cc2n1 (racemic) [Example 97, rac-cis-4,4-difluoro-2-((5-fluoro-2-(2-methoxy-7-methylquinoxalin-5-yl)benzo[d]thiazol-6-yl)oxy)cyclopentyl (2-methylpyrimidin-5-yl)carbamate)]
IC50 [2]: 9.2 nM
